Measurements published in ChEMBL document CHEMBL3244206, “Quinazolines as inhibitors of dihydrofolate reductase. 4. Classical analogues of folic and isofolic acids” (J Med Chem, 1977).

The compounds below were run on L1210 (assay: Antitumor activity against mouse L1210 cells allografted in mouse assessed as increase in survival at 75 mg/kg administered on day 1 relative to control). Details: L1210, 24 h.
Assay type: functional

Row | Structure (SMILES) | survival at 75 mg/kg [%]
1 | Nc1nc(N)c2cc(CN(C=O)c3ccc(C(=O)N[C@@H](CCC(=O)O)C(=O)O)cc3)ccc2n1 | 0

What follows are compounds tested on L1210 (assay: Antitumor activity against mouse L1210 cells allografted in mouse assessed as increase in survival at 100 mg/kg administered on day 1 to 3 relative to control). Details: L1210, 24 h.
Assay type: functional

Row | Structure (SMILES) | survival at 100 mg/kg [%]
2 | Nc1nc(O)c2cc(CN(C=O)c3ccc(C(=O)N[C@@H](CCC(=O)O)C(=O)O)cc3)ccc2n1 | 19

Each compound was assayed against T1, Dihydrofolate reductase (Enterococcus faecium, UniProt P00380) (assay: Inhibition of Streptococcus faecium dihydrofolate reductase using dihydrofolate as substrate). Details: read-out: I50.
T1 sequence (P00380 whole entry): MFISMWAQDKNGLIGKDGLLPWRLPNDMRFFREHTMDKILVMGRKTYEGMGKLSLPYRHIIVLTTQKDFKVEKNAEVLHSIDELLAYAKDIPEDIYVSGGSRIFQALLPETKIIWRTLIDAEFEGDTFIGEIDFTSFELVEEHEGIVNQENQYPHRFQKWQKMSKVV

Row | Structure (SMILES) | IC50 [nM]
3 | Nc1nc(N)c2c(Cl)c(CNc3ccc(C(=O)N[C@@H](CCC(=O)O)C(=O)O)cc3)ccc2n1 | 0.7
4 | CCOC(=O)CC[C@H](NC(=O)c1ccc(CNc2ccc3nc(N)nc(N)c3c2)cc1)C(=O)OCC | 32
5 | Cc1c(NCc2ccc(C(=O)N[C@@H](CCC(=O)O)C(=O)O)cc2)ccc2nc(N)nc(N)c12 | 8.3
6 | Nc1nc(O)c2cc(NCc3ccc(C(=O)N[C@@H](CCC(=O)O)C(=O)O)cc3)ccc2n1 | 22000
7 | CCOC(=O)CC[C@H](NC(=O)c1ccc(CNc2ccc3nc(N)nc(O)c3c2C)cc1)C(=O)OCC | 115000
8 | Cc1c(NCc2ccc(C(=O)N[C@@H](CCC(=O)O)C(=O)O)cc2)ccc2nc(N)nc(O)c12 | 5900
9 | Cc1c(CNc2ccc(C(=O)N[C@@H](CC(=O)O)C(=O)O)cc2)ccc2ncnc(N)c12 [METHASQUIN] | 2.5

Continued, values first:

Row | IC50 [nM] | Structure (SMILES)
10 | 2.4 | CCOC(=O)CC[C@H](NC(=O)c1ccc(NCc2ccc3nc(N)nc(N)c3c2C)cc1)C(=O)OCC
11 | 2.2 | Cc1c(CNc2ccc(C(=O)N[C@@H](CCC(=O)O)C(=O)O)cc2)ccc2nc(N)nc(N)c12
12 | 1.7 | CCOC(=O)CC[C@H](NC(=O)c1ccc(NCc2ccc3nc(N)nc(N)c3c2Cl)cc1)C(=O)OCC
13 | 3.9 | CCOC(=O)CC[C@H](NC(=O)c1ccc(CNc2ccc3nc(N)nc(N)c3c2C)cc1)C(=O)OCC
14 | 24000 | CCOC(=O)CC[C@H](NC(=O)c1ccc(CNc2ccc3nc(N)nc(O)c3c2)cc1)C(=O)OCC
15 | 32 | Nc1nc(N)c2cc(NCc3ccc(C(=O)N[C@@H](CCC(=O)O)C(=O)O)cc3)ccc2n1

Each compound was assayed on Mus musculus (assay: Toxicity in mouse allografted with mouse L1210 cells assessed as mortality at 75 mg/kg administered on day 1 measured on day 2). Details: in vivo.
Assay type: organism-based
Set-up: dose 75 mg/kg

Row | Structure (SMILES) | Activity
16 | Nc1nc(N)c2cc(CN(C=O)c3ccc(C(=O)N[C@@H](CCC(=O)O)C(=O)O)cc3)ccc2n1 | Toxic

The compounds below were run on L1210 (assay: Antitumor activity against mouse L1210 cells allografted in mouse assessed as increase in survival at 200 mg/kg administered on day 1 to 3 relative to control). Details: L1210, 24 h.
Assay type: functional

Row | Structure (SMILES) | survival at 200 mg/kg [%]
17 | Nc1nc(O)c2cc(CN(C=O)c3ccc(C(=O)N[C@@H](CCC(=O)O)C(=O)O)cc3)ccc2n1 | 15

These compounds were tested on L1210 (assay: Antitumor activity against mouse L1210 cells allografted in mouse assessed as increase in survival at 100 mg/kg administered on day 1 to 5 relative to control). Details: L1210, 24 h.
Assay type: functional

Row | Structure (SMILES) | survival at 100 mg/kg [%]
18 | Nc1nc(O)c2cc(CN(C=O)c3ccc(C(=O)N[C@@H](CCC(=O)O)C(=O)O)cc3)ccc2n1 | 25
